Values of other authors, collected in US20240398793A1, “Methods of Treating Lymphedema” (Celltaxis, LLC, priority 2021, published 2024).
“Also recorded” adds a separate entry of the source.

Key:
[1] = molecular target: T1, LTA4H aminopeptidase (Homo sapiens (Human), UniProt P09960); conditions: read-out: Aminopeptidase IC50 ± SEM; cited from earlier work
[2] = molecular target: LTA4H epoxide hydrolase (Homo sapiens (Human), UniProt P09960); conditions: read-out: EH (Epoxide Hydrolase) IC50 ± SEM; cited from earlier work
[3] = tested on: human lymphedema; conditions: adult lymphedema subjects, open-label and placebo-controlled pilot; cited from earlier work
[4] = tested on: experimental acquired lymphedema; conditions: cited from earlier work
[5] = molecular target: T1, LTA4H aminopeptidase; conditions: Bhatt et al. (2017); Inoi et al. (1995); cited from earlier work
[6] = tested on: aminopeptidases; conditions: Bhatt et al. (2017); Inoi et al. (1995); cited from earlier work
[7] = tested on: lymphedema of the lower limb; conditions: Phase 2, lymphedema of the lower limb; cited from earlier work

T1 sequence (P09960 whole entry): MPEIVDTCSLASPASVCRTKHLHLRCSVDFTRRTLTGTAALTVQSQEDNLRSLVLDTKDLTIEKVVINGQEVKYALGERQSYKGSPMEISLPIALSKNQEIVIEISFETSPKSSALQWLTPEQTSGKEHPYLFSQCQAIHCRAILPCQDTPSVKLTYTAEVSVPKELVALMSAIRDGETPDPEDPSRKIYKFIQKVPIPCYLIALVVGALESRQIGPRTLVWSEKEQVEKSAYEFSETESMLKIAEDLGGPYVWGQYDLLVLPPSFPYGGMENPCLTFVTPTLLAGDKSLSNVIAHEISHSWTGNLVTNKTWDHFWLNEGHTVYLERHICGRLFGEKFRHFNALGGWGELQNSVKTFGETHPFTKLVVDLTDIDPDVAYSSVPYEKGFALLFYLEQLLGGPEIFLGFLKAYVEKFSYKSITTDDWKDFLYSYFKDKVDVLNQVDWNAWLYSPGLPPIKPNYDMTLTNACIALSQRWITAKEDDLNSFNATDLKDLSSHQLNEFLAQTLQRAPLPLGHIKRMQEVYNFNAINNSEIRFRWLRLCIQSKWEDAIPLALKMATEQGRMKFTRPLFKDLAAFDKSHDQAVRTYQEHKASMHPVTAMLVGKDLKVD
LTA4H epoxide hydrolase, sequence (P09960 whole entry): as above

O=C(Cc1ccc(O)cc1)c1ccc(O)cc1O [Compound 10]
IC50 [1]: > 100 µM

COc1cc(O)cc(CCc2cccc(O)c2)c1 [Compound 8]
IC50 [1]: > 100 µM

O=c1c(-c2ccc(O)cc2)coc2c(O)cccc12 [Compound 12]
IC50 [2]: 7.3 ± 0.8 µM
IC50 [1]: 62.7 ± 13.3 µM

O=c1c(-c2ccc(O)cc2)coc2cc(O)ccc12 [Compound 11]
IC50 [1]: > 100 µM

COc1cc(O)cc(CCc2ccccc2O)c1 [Compound 9]
IC50 [1]: > 100 µM

O=c1c(-c2ccc(O)cc2)coc2c3c(ccc12)OCO3 [Compound 14]
IC50 [2]: 20.6 ± 24 µM
IC50 [1]: 20.6 ± 3.3 µM

CC(C(=O)O)c1cccc(C(=O)c2ccccc2)c1 (stereo not shown) [ketoprofen]
skin thickness and cutaneous histopathology [3]: salutary effects; also recorded: improve skin thickness
lymphedema disease burden ([4]; mice, systemic administration): documented reversal of disease burden; also recorded: disease burden was reversed

CC(=O)Oc1ccc(/C=C/c2cc(OC(C)=O)cc(OC(C)=O)c2)cc1 [Compound 4]
IC50 [1]: > 100 µM

CC(C)C[C@H](NC(=O)[C@@H](O)[C@H](N)Cc1ccccc1)C(=O)O [Ubenimex]
LTA4H selectivity [5]: non-selective LTA4H inhibitor
aminopeptidase inhibition spectrum [6]: broad spectrum aminopeptidase inhibitor
improvement in skin thickness, limb volume and bioimpedance over placebo [7]: did not identify an improvement
edema, lymphatic function, lymphatic architecture ([4]; murine model of lymphedema): reversed edema, improved lymphatic function, and restored lymphatic architecture

CCOc1cc(O)cc(CCc2ccc(O)cc2)c1 [Compound 7]
IC50 [1]: > 100 µM

Cc1ccc2c(=O)c(-c3ccc(O)cc3)coc2c1O [Compound 15]
IC50 [1]: 69.2 ± 10.9 µM

COc1cc(O)cc(CCc2ccc(O)cc2)c1 [Compound 6]
IC50 [1]: > 100 µM

O=c1c(-c2ccccc2)coc2cc(O)ccc12 [Compound 13]
IC50 [1]: > 100 µM
